In brackets after ≈: the same amount, converted by molar mass. Read-outs that look alike come from different tables or passages of the source.
Assays:
[1] = biological target: T1, S. pneumoniae WalK (Streptococcus pneumoniae, UniProt Q8DPL8); assay: In vitro autophosphorylation kinase assay with γ-32P-ATP, WalK; type: biochemical; conditions: autophosphorylation, one time point (30 sec), 10% DMSO; read-out: IC50 WalK
T1 construct: WalK (amino acids from 208 to 449); N-terminal His6-3C site of vector pOPINF (own knowledge of the vector); made in house; host or cells: E. coli RIL
Protocol: (§1) To evaluate the inhibitory capacity of selected hits from DSF, SBVS and LBSS in vitro autophosphorylation kinase assays with γ-^32P-ATP were performed as previously described. Ligands were dissolved in 100% DMSO. […] Controls lacking ligands contained an equal concentration of DMSO. Inhibition of autophosphorylation was determined by incubating 0.12 mg/ml (≈4 μM) HK and up to 20 mM fragment in kinase buffer (50 mM Tris HCl, pH 8.5, 50 mM KCl, 5 mM MgCl2, 0.5 mM EDTA and 0.1 mM DTT). Autophosporylation reactions were initiated by addition of 0.1 μCi/μl γ-^32P-ATP containing from 0.03 to 0.06 μM ATP (final concentrations). Autophosphorylation was quenched with 2xSDS-PAGE sample buffer supplemented with 50 mM EDTA. […] After electrophoresis, the bottoms of the gels were removed to lower the background from the unincorporated radiolabeled ATP. Gels were dried without staining on a Bio-Rad Gel Air drying system and the phosphorylated protein was quantified by phosphor-imaging. Prism GraphPad was used for curve fitting and statistical analysis.

[2] = Solubility in kinase buffer; type: physicochemical; conditions: kinase buffer in the presence of 10% DMSO
[3] = system: Streptococcus suis; assay: Antibacterial susceptibility testing (MIC), S. suis; type: cell-based
Protocol: (§2) Bacterial strains used in this study for antibacterial susceptibility testing (Table S5) were propagated using standard microbiological procedures. Minimal inhibitory concentrations (MICs) were determined following a standard double-dilution method. MICs were recorded as the lowest concentration of the compound where no visible growth was observed. After plating the dilutions around the MIC or growing them in fresh MH media, minimal bactericidal concentration (MBC) was recorded as the lowest concentration of the compound at which no colonies were formed or no growth was observed, respectively. For S. pneumoniae MICs were determined by adapting the standard double-dilution method to anaerobic conditions and of this microorganism (use of Todd Hewitt Yeast extract with 200 U/mL of catalase and continuous monitoring of growth).

[4] = Hemolysis assay; type: cell-based; conditions: human
Protocol: Hemolytic activity against human erythrocytes taken from a healthy donor was measured as previously described. The hemolysis experiments were carried out in accordance with the guidelines of the United Arab Emirates University (UAEU) Research Ethics Review Board. All experimental protocols were approved by the Research Ethics Review Board of UAEU and informed consent was obtained from all donors.

[5] = system: Acinetobacter baumannii; assay: Antibacterial susceptibility testing (MIC), A. baumannii; type: cell-based; conditions: MDR clinical isolate NM8, read-out: MIC A. baumannii NM8
Protocol: as §2

[6] = system: Stenotrophomonas maltophilia; assay: Antibacterial susceptibility testing (MIC), S. maltophilia; type: cell-based; conditions: clinical isolate B32/1, read-out: MIC S. maltophilia B32/1
Protocol: as §2

[7] = biological target: T2, E. coli PhoR (PhoR^E) (Escherichia coli, UniProt P08400); assay: In vitro autophosphorylation kinase assay with γ-32P-ATP, PhoR^E; type: biochemical
T2 construct: The catalytic portion (DHp and CA domain) of E. coli PhoR (PhoR^E); made in house; host or cells: E. coli RIL
Protocol: as §1

[8] = system: Staphylococcus epidermidis; assay: Antibacterial susceptibility testing (MIC/MBC), S. epidermidis; type: cell-based
Protocol: (§3) Minimal inhibitory concentrations (MICs) were determined following a standard double-dilution method. […] For S. pneumoniae MICs were determined by adapting the standard double-dilution method to anaerobic conditions and of this microorganism (use of Todd Hewitt Yeast extract with 200 U/mL of catalase and continuous monitoring of growth).

[9] = system: Klebsiella pneumoniae; assay: Antibacterial susceptibility testing (MIC), K. pneumoniae; type: cell-based; conditions: Klebsiella pneumoniae, ATCC700603, strain ATCC 700603
Protocol: as §2

[10] = system: Staphylococcus aureus; assay: Antibacterial susceptibility testing (MIC/MBC), S. aureus; type: cell-based
Protocol: as §3

[11] = system: Pseudomonas aeruginosa; assay: Antibacterial susceptibility testing (MIC), P. aeruginosa; type: cell-based; conditions: Pseudomonas aeruginosa, ATCC27853; strain ATCC 27853
Protocol: as §2

[12] = system: Escherichia coli; assay: Antibacterial susceptibility testing (MIC/MBC), E. coli; type: cell-based; conditions: Escherichia coli
Protocol: as §3

T2 sequence (P08400 210-425): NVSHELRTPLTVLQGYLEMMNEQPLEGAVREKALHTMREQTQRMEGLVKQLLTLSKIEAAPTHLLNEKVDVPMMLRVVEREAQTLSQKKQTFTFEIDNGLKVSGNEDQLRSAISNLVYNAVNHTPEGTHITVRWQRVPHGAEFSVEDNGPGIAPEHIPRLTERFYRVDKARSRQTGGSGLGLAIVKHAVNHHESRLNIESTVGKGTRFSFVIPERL
T1 sequence (Q8DPL8 208-449): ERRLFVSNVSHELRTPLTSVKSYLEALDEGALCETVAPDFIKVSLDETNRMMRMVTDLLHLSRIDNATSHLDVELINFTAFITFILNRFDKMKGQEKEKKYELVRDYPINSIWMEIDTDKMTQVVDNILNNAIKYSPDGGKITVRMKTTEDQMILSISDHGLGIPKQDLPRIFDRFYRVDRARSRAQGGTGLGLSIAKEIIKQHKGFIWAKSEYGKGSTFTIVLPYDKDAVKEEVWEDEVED

For `Oc1cccc2[nH]c3ccccc3c12` [F2.8], the IC50 [1] was > 2000 µM, the “solubility in kinase buffer” value [2] was “good solubility” and the MIC ([3]; Streptococcus suis, read-out: MIC Streptococcus suis 3881/S10, strain 3881/S10) was 250 µg/mL (≈ 1360 µM). For the same compound, the “MIC Streptococcus suis 3881/S10” value ([3]; strain 3881/S10) was 125 µg/mL (≈ 682 µM), the HC50 [4] was > 500 µg/mL and the MIC [5] was > 500 µg/mL. The MIC [6] was > 500 µg/mL, the inhibition at 2000 µM ([7]; 2 mM, 30 sec, compared to negative control) was > 50% and the IC50 ([7]; autophosphorylation, one time point (30 sec), 10% DMSO, read-out: IC50 PhoR^E) was 720 µM. For the same compound, the MBC ([8]; Staphylococcus epidermidis, DSM20044, strain DSM 20044) was 250 µg/mL (≈ 1360 µM), the MIC ([8]; Staphylococcus epidermidis, DSM20044, strain DSM 20044, read-out: MIC S. epidermidis DSM 20044) was 31 to 500 µg/mL (≈ 169 to 2730 µM) and the MIC ([8]; Staphylococcus epidermidis, clinical isolate T7/3, read-out: MIC S. epidermidis T7/3) was 63 µg/mL (≈ 344 µM). It also gave an MIC ([8]; Staphylococcus epidermidis, clinical isolate T37/8, read-out: MIC S. epidermidis T37/8) of 250 µg/mL (≈ 1360 µM), an MIC ([8]; Staphylococcus epidermidis, clinical isolate T6119, read-out: MIC S. epidermidis T6119) of 250 µg/mL (≈ 1360 µM) and an MIC ([8]; Staphylococcus epidermidis, strain RP62A (biofilm producer), read-out: MIC S. epidermidis RP62A) of 250 µg/mL (≈ 1360 µM). The MIC ([8]; Staphylococcus epidermidis, strain RP62A/1 (non-biofilm producer), read-out: MIC S. epidermidis RP62A/1) was 250 µg/mL (≈ 1360 µM), the MIC ([8]; Staphylococcus epidermidis, summary over strains, read-out: MICs for the S. epidermidis strains) was 31 to 250 µg/mL (≈ 169 to 1360 µM) and the “MIC S. epidermidis DSM 20044” value ([8]; strain DSM 20044) was 31 µg/mL (≈ 169 µM). For the same compound, the MIC [9] was 250 µg/mL (≈ 1360 µM), the MIC ([10]; Staphylococcus aureus, ATCC reference strain 25293, read-out: MIC S. aureus 25293) was 250 µg/mL (≈ 1360 µM) and the MBC ([10]; Staphylococcus aureus, DSM20231, strain DSM 20231, read-out: MBC S. aureus DSM 20231) was 63 µg/mL (≈ 344 µM). The MIC ([10]; Staphylococcus aureus, DSM20231, strain DSM 20231, read-out: MIC S. aureus DSM 20231) was 31 to 250 µg/mL (≈ 169 to 1360 µM), the MIC ([10]; Staphylococcus aureus, MRSA clinical isolate 127/08, read-out: MIC S. aureus 127/08) was 250 µg/mL (≈ 1360 µM) and the MIC ([10]; Staphylococcus aureus, MRSA clinical isolate 145/08, read-out: MIC S. aureus 145/08) was 250 µg/mL (≈ 1360 µM). The MIC ([10]; Staphylococcus aureus, MRSA clinical isolate 274/08, read-out: MIC S. aureus 274/08) was 250 µg/mL (≈ 1360 µM), the MIC ([10]; Staphylococcus aureus, MRSA, MRSA clinical isolate T4/6, read-out: MIC S. aureus T4/6) was 250 µg/mL (≈ 1360 µM) and the MIC ([10]; Staphylococcus aureus, MRSA, MRSA clinical isolate V4180, read-out: MIC S. aureus V4180) was 250 µg/mL (≈ 1360 µM). The MIC ([10]; Staphylococcus aureus, MRSA, summary over strains, read-out: MICs for the MRSA strains and S. aureus 25293) was 125 to 500 µg/mL (≈ 682 to 2730 µM), the “MIC S. aureus DSM 20231” value ([10]; strain DSM 20231) was 31 µg/mL (≈ 169 µM) and the MIC [11] was > 500 µg/mL. The MIC ([12]; ATCC25276, strain ATCC 25276, read-out: MIC E. coli ATCC 25276) was 500 µg/mL (≈ 2730 µM), the MBC ([12]; strain CFT 073, read-out: MBC E. coli CFT 073) was 500 µg/mL (≈ 2730 µM) and the MIC ([12]; summary over E. coli strains, read-out: antibacterial effects (MIC) against E. coli) was ≥ 63 µg/mL.
